From PubChem BioAssay AID256 (DTP/NCI, 2004)
Where “and” joins values, the source holds several entries; their conditions need not be identical. Identical values can stand only once. Inconclusive results and toxic doses are left out.

System: CD2F1 mice, L1210 leukemia ip, survival T/C
Assay: NCI In Vivo Anticancer Drug Screen. Data for tumor model L1210 Leukemia (intraperitoneal) in CD2F1 (CDF1) mice
Settings: higher = longer survival
Procedure, shortened: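 Antitumor effect is scored in animals hosting a serially transplanted tumor. Values compare compound-dosed animals against vehicle-only controls as a simple quotient.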

[1] = endpoint: mean survival time, dose: 100.0 mg/kg/injection, schedule: Q01DX001 (ip), vehicle: saline with Tween-80
[2] = endpoint: mean survival time, dose: 200.0 mg/kg/injection, schedule: Q01DX001 (ip), vehicle: saline with Tween-80
[3] = endpoint: mean survival time, dose: 100.0 mg/kg/injection, schedule: Q01DX009 (ip), vehicle: saline with Tween-80
[4] = endpoint: mean survival time, dose: 200.0 mg/kg/injection, schedule: Q01DX009 (ip), vehicle: saline with Tween-80
[5] = endpoint: mean survival time, dose: 100.0 mg/kg/injection, schedule: Q04DX003 (ip), vehicle: saline sonified
[6] = endpoint: mean survival time, dose: 200.0 mg/kg/injection, schedule: Q04DX003 (ip), vehicle: saline sonified
[7] = endpoint: mean survival time, dose: 100.0 mg/kg/injection, schedule: Q04DX003 (ip), vehicle: Klucel (hydroxypropylcellulose) (HPC)
[8] = endpoint: mean survival time, dose: 200.0 mg/kg/injection, schedule: Q04DX003 (ip), vehicle: Klucel (hydroxypropylcellulose) (HPC)
[9] = endpoint: mean survival time, dose: 400.0 mg/kg/injection, schedule: Q04DX003 (ip), vehicle: Klucel (hydroxypropylcellulose) (HPC)
[10] = endpoint: mean survival time, dose: 25.0 mg/kg/injection, schedule: Q01DX009 (ip), vehicle: saline with Tween-80
[11] = endpoint: mean survival time, dose: 50.0 mg/kg/injection, schedule: Q01DX009 (ip), vehicle: saline with Tween-80
[12] = endpoint: mean survival time, dose: 100.0 mg/kg/injection, schedule: Q04DX002 (ip), vehicle: saline with Tween-80
[13] = endpoint: mean survival time, dose: 200.0 mg/kg/injection, schedule: Q04DX002 (ip), vehicle: saline with Tween-80
[14] = endpoint: mean survival time, dose: 400.0 mg/kg/injection, schedule: Q04DX002 (ip), vehicle: saline with Tween-80
[15] = endpoint: mean survival time, dose: 100.0 mg/kg/injection, schedule: Q04DX003 (ip), vehicle: saline

With `O=C(O/N=C(\C(=O)c1ccccc1)c1ccccc1)c1ccc(Br)cc1` the T/C [1] was 90 % of control and the T/C [2] was 90 % of control.

`CCC1CC2CN(CCc3c([nH]c4ccccc34)C(C(=O)OC)(c3cc4c(cc3OC)N(C)C3C(O)(C(=O)OC)C(OC(C)=O)C5(CC)C=CCN6CCC43C65)C2)C1` (configuration not stated) was tested, and the T/C (endpoint: median survival time, dose: 0.06 mg/kg/injection, schedule: Q01DX009 (ip), vehicle: saline) was 102 % of control, the T/C (endpoint: median survival time, dose: 0.13 mg/kg/injection, schedule: Q01DX009 (ip), vehicle: saline) was 103 % of control and the T/C (endpoint: median survival time, dose: 0.25 mg/kg/injection, schedule: Q01DX009 (ip), vehicle: saline) was 105 % of control. For the same compound, the T/C (endpoint: median survival time, dose: 0.5 mg/kg/injection, schedule: Q01DX009 (ip), vehicle: saline) was 116 % of control, the T/C (endpoint: median survival time, dose: 0.5 mg/kg/injection, schedule: Q01DX009 (ip), vehicle: water) was 113 % of control and the T/C (endpoint: median survival time, dose: 1.0 mg/kg/injection, schedule: Q01DX009 (ip), vehicle: saline) was 120 % of control. For the same compound, the T/C (endpoint: median survival time, dose: 1.0 mg/kg/injection, schedule: Q01DX009 (ip), vehicle: water) was 116 % of control and the T/C (endpoint: median survival time, dose: 2.0 mg/kg/injection, schedule: Q01DX009 (ip), vehicle: water) was 104 % of control.

For `OCCN=Cc1cccs1`, the T/C [3] was 101 % of control, the T/C [4] was 95 % of control and the T/C (endpoint: mean survival time, dose: 400.0 mg/kg/injection, schedule: Q01DX009 (ip), vehicle: saline with Tween-80) was 110 % of control.

`BrC1(Br)C2CC/C=C/CCCCC21` (configuration not stated) was tested, and the T/C [5] was 97 % of control, the T/C [6] was 94 % of control and the T/C (endpoint: mean survival time, dose: 400.0 mg/kg/injection, schedule: Q04DX003 (ip), vehicle: saline sonified) was 97 % of control.

For `COP(=O)(OC)OCC1OC(c2n[nH]c(C(N)=O)c2O)C(O)C1O` (configuration not stated), the T/C (endpoint: median survival time, dose: 8.13 mg/kg/injection, schedule: Q01DX005 (ip), vehicle: saline) was 100 % of control, the T/C (endpoint: median survival time, dose: 16.25 mg/kg/injection, schedule: Q01DX005 (ip), vehicle: saline) was 102 % of control and the T/C (endpoint: median survival time, dose: 32.5 mg/kg/injection, schedule: Q01DX005 (ip), vehicle: saline) was 101 % of control. The T/C (endpoint: median survival time, dose: 65.0 mg/kg/injection, schedule: Q01DX005 (ip), vehicle: saline) was 111 % of control and the T/C (endpoint: median survival time, dose: 130.0 mg/kg/injection, schedule: Q01DX005 (ip), vehicle: saline) was 111 % of control.

With `COC(=O)c1cccc2c1/C(=N/NC(N)=S)c1ccccc1-2` the T/C (endpoint: mean survival time, dose: 50.0 mg/kg/injection, schedule: Q01DX001 (ip), vehicle: carboxymethylcellulose (CMC)) was 102 % of control, the T/C (endpoint: mean survival time, dose: 100.0 mg/kg/injection, schedule: Q01DX001 (ip), vehicle: carboxymethylcellulose (CMC)) was 98 % of control and the T/C (endpoint: mean survival time, dose: 200.0 mg/kg/injection, schedule: Q01DX001 (ip), vehicle: carboxymethylcellulose (CMC)) was 102 % of control. The T/C (endpoint: mean survival time, dose: 400.0 mg/kg/injection, schedule: Q01DX001 (ip), vehicle: carboxymethylcellulose (CMC)) was 102 % of control.

With `O=[N+]([O-])c1ccc(/C=N\Nc2ccc([N+](=O)[O-])cn2)cc1` the T/C (endpoint: mean survival time, dose: 50.0 mg/kg/injection, schedule: Q04DX003 (ip), vehicle: saline sonified) was 96 % of control, the T/C [5] was 89 % of control and the T/C [6] was 96 % of control.

With `COC(=O)c1cc(N(CCCl)CCCl)ccc1N=Nc1ccc([N+](=O)[O-])cc1` the T/C [7] was 109 % of control, the T/C [8] was 115 % of control and the T/C [9] was 117 % of control.

`O=C1C=C(N2CCCC2)c2ccccc21` was tested, and the T/C [7] was 106 % of control, the T/C [8] was 97 % of control and the T/C [9] was 95 % of control.

With `CCOC(=O)N(OCc1ccccc1)P(=O)(N1CC1(C)C)N1CC1(C)C` (configuration not stated) the T/C [10] was 95 % of control, the T/C [11] was 93 % of control and the T/C [3] was 98 % of control.

In the case of `O=C1C=CC(=O)N1c1ccc(Oc2ccc(Cl)cc2)cc1`, the T/C [11] is reported as 103 % of control, the T/C [3] is reported as 107 % of control and the T/C [4] is reported as 88 % of control.

With `CC(=O)C1(O)Cc2c(O)c3c(c(O)c2C(OC2CC(N)C(O)C(C)O2)C1)C(=O)c1ccccc1C3=O` (configuration not stated) the T/C (endpoint: mean survival time, dose: 0.03 mg/kg/injection, schedule: Q01DX009 (ip), vehicle: water) was 104 % of control, the T/C (endpoint: mean survival time, dose: 0.05 mg/kg/injection, schedule: Q01DX009 (ip), vehicle: water) was 110 % of control and the T/C (endpoint: mean survival time, dose: 0.1 mg/kg/injection, schedule: Q01DX009 (ip), vehicle: water) was 117 % of control. The T/C (endpoint: mean survival time, dose: 0.4 mg/kg/injection, schedule: Q01DX009 (ip), vehicle: water) was 151 % of control and the T/C (endpoint: mean survival time, dose: 0.8 mg/kg/injection, schedule: Q01DX009 (ip), vehicle: water) was 92 % of control.

For `CC12CCC(=O)C=C1CCC1C2CCC2(C)C1CCC2(O)C(=O)Cn1c(=O)[nH]cc(F)c1=O` (configuration not stated), the T/C (endpoint: mean survival time, dose: 12.5 mg/kg/injection, schedule: Q04DX003 (ip), vehicle: Klucel (hydroxypropylcellulose) (HPC)) was 93 % of control, the T/C (endpoint: mean survival time, dose: 25.0 mg/kg/injection, schedule: Q04DX003 (ip), vehicle: Klucel (hydroxypropylcellulose) (HPC)) was 96 % of control and the T/C (endpoint: mean survival time, dose: 50.0 mg/kg/injection, schedule: Q04DX003 (ip), vehicle: Klucel (hydroxypropylcellulose) (HPC)) was 93 % of control. The T/C [7] was 100 % of control and the T/C [8] was 96 % of control.

`Cn1c(=O)c2[nH]cnc2n(C)c1=O` (tested in a mixture with another compound) was tested, and the T/C (endpoint: mean survival time, dose: 50.0 mg/kg/injection, schedule: Q01DX009 (ip), vehicle: saline sonified) was 98 % of control, the T/C (endpoint: mean survival time, dose: 100.0 mg/kg/injection, schedule: Q01DX009 (ip), vehicle: saline sonified) was 98 % of control and the T/C (endpoint: mean survival time, dose: 200.0 mg/kg/injection, schedule: Q01DX009 (ip), vehicle: saline sonified) was 98 % of control.

`CCCCCCCCCC(=O)NC(=S)Nc1ccc(Cl)cc1` was tested, and the T/C [10] was 95 % of control and 96 % of control, the T/C [11] was 98 % of control and 101 % of control and the T/C [1] was 94 % of control and 95 % of control. The T/C [12] was 100 % of control and 104 % of control, the T/C [2] was 92 % of control and 103 % of control and the T/C [13] was 92 % of control and 93 % of control. For the same compound, the T/C (endpoint: mean survival time, dose: 400.0 mg/kg/injection, schedule: Q01DX001 (ip), vehicle: saline with Tween-80) was 100 % of control and 103 % of control and the T/C [14] was 88 % of control and 90 % of control.

With `COc1ccccc1NC(=O)Oc1c(C)cccc1C` the T/C [12] was 92 % of control, the T/C [13] was 100 % of control and the T/C [14] was 111 % of control.

With `CCS(=O)(=O)/C=C(\C#Cc1ccccc1)c1ccccc1` the T/C (endpoint: mean survival time, dose: 50.0 mg/kg/injection, schedule: Q01DX009 (ip), vehicle: saline) was 90 % of control, the T/C (endpoint: mean survival time, dose: 100.0 mg/kg/injection, schedule: Q01DX009 (ip), vehicle: saline) was 91 % of control and the T/C [15] was 102 % of control. For the same compound, the T/C (endpoint: mean survival time, dose: 200.0 mg/kg/injection, schedule: Q01DX009 (ip), vehicle: saline) was 91 % of control, the T/C (endpoint: mean survival time, dose: 200.0 mg/kg/injection, schedule: Q04DX003 (ip), vehicle: saline) was 102 % of control and the T/C (endpoint: mean survival time, dose: 400.0 mg/kg/injection, schedule: Q04DX003 (ip), vehicle: saline) was 98 % of control.

For `O=C1C(c2ccccc2)=S=C2Sc3ccccc3N12`, the T/C [7] was 102 % of control, the T/C [8] was 103 % of control and the T/C [9] was 96 % of control.

`CCC1(O)C(=O)OCc2c1cc1n(c2=O)Cc2cc3cc(C)ccc3nc2-1` (configuration not stated) was tested, and the T/C (endpoint: median survival time, dose: 10.0 mg/kg/injection, schedule: Q04DX002 (ip), vehicle: saline with Tween-80) was 151 % of control and 207 % of control, the T/C (endpoint: median survival time, dose: 20.0 mg/kg/injection, schedule: Q04DX002 (ip), vehicle: saline with Tween-80) was 151 % of control and 192 % of control and the T/C (endpoint: median survival time, dose: 40.0 mg/kg/injection, schedule: Q04DX002 (ip), vehicle: saline with Tween-80) was 162 % of control and 195 % of control. The T/C (endpoint: median survival time, dose: 80.0 mg/kg/injection, schedule: Q04DX002 (ip), vehicle: saline with Tween-80) was 186 % of control and the T/C (endpoint: median survival time, dose: 160.0 mg/kg/injection, schedule: Q04DX002 (ip), vehicle: saline with Tween-80) was 114 % of control.

`NC(=O)CCC(=O)NCCN1CC1` was tested, and the T/C (endpoint: mean survival time, dose: 25.0 mg/kg/injection, schedule: Q04DX003 (ip), vehicle: saline) was 97 % of control, the T/C (endpoint: mean survival time, dose: 50.0 mg/kg/injection, schedule: Q04DX003 (ip), vehicle: saline) was 97 % of control and the T/C (endpoint: mean survival time, dose: 100.0 mg/kg/injection, schedule: Q01DX001 (ip), vehicle: saline) was 104 % of control. For the same compound, the T/C [15] was 96 % of control, the T/C (endpoint: mean survival time, dose: 200.0 mg/kg/injection, schedule: Q01DX001 (ip), vehicle: saline) was 98 % of control and the T/C (endpoint: mean survival time, dose: 400.0 mg/kg/injection, schedule: Q01DX001 (ip), vehicle: saline) was 115 % of control.

For `O=c1[nH]cc(Cc2ccccc2)c(=S)[nH]1`, the T/C (endpoint: mean survival time, dose: 75.0 mg/kg/injection, schedule: Q01DX001 (ip), vehicle: saline with Tween-80) was 107 % of control, the T/C (endpoint: mean survival time, dose: 150.0 mg/kg/injection, schedule: Q01DX001 (ip), vehicle: saline with Tween-80) was 102 % of control and the T/C (endpoint: mean survival time, dose: 300.0 mg/kg/injection, schedule: Q01DX001 (ip), vehicle: saline with Tween-80) was 91 % of control.
